Test results: ChEMBL document CHEMBL6120961, “Design, Synthesis, and Biological Evaluation of Covalently Mucoadhesive Derivatives as Nonsystemic Intestine-Targeted TGR5 Agonists” (J Med Chem, 2024)
Calls of active or inactive are those of the source. No cut-off for these calls is given here.

Columns and labels:
[1] = target: T1, G-protein coupled bile acid receptor 1 (Homo sapiens, UniProt Q8TDU6); assay: Agonist activity at human TGR5 expressed in HEK293T cells assessed as cAMP production incubated for 30 mins by HTRF assay; format: functional, cell-based
T1 sequence (Q8TDU6 whole entry): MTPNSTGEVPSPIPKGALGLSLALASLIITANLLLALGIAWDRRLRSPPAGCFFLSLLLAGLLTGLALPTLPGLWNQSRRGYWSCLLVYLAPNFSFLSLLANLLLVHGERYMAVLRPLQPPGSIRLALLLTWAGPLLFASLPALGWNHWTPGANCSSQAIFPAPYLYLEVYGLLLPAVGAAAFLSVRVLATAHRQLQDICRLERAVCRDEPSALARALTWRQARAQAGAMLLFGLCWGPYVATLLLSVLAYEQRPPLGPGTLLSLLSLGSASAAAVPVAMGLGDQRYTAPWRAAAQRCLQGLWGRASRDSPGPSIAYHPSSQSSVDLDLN

[2] = target: T2, G-protein coupled bile acid receptor 1 (Mus musculus, UniProt Q80SS6); assay: Agonist activity at mouse TGR5 expressed in HEK293T cells assessed as cAMP production incubated for 30 mins by HTRF assay; format: cell-based
T2 sequence (Q80SS6 whole entry): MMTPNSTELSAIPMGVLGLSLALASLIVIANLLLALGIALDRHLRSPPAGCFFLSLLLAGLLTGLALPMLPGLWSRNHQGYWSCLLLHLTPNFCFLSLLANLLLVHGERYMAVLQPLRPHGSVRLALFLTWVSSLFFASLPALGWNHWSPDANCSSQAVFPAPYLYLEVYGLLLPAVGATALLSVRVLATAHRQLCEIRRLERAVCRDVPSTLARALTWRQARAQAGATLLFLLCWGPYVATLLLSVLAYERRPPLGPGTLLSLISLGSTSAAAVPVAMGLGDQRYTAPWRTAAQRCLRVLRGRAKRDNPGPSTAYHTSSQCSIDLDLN

Mus musculus [3] = assay: Hypoglycemic activity in overnight fasted C57BL/6 mouse assessed as reduction in blood glucose level at 50 mg/kg, po preadministered with compound for 60 mins followed by first dose of glucose administration for 120 mins and measured after 120 mins of second glucose administration by oral glucose tolerance test; format: functional, organism-based; details: time 5.0 hrs
[4] = Toxicity in overnight fasted male C57BL/6J mouse assessed as increase in gallbladder volume at 50 mg/kg, po measured after 6 hrs; format: organism-based; details: in vivo
[5] = Toxicity in overnight fasted male C57BL/6J mouse assessed as increase in bile weight at 50 mg/kg, po measured after 6 hrs; format: organism-based; details: in vivo
[6] = Efflux ratio of apparent permeability across basolateral to apical over apical to basolateral side in human Caco-2 cells at 10 uM incubated for 2 hrs by LC-MS/MS analysis
[7] = Apparent permeability across apical to basolateral side in human Caco-2 cells at 10 uM incubated for 2 hrs by LC-MS/MS analysis
[8] = Apparent permeability across basolateral to apical side in human Caco-2 cells at 10 uM incubated for 2 hrs by LC-MS/MS analysis
[9] = Apparent permeability across apical to basolateral side in human Caco-2 cells assessed as drug recovery at 10 uM incubated for 2 hrs by LC-MS/MS analysis
[10] = Apparent permeability across basolateral to apical side in human Caco-2 cells assessed as drug recovery at 10 uM incubated for 2 hrs by LC-MS/MS analysis
[11] = Apparent permeability across apical to basolateral side in human Caco-2 cells assessed as drug recovery at 2 uM incubated for 2 hrs by LC-MS/MS analysis; format: ADME, cell-based; details: read-out: Drug recovery
Mus musculus [12] = assay: Hypoglycemic activity in overnight fasted C57BL/6 mouse assessed as reduction in blood glucose AUC (0 to 120 min) at 50 mg/kg, po preadministered with compound for 60 mins followed by first dose of glucose administration for 120 mins and measured after 120 mins of second glucose administration by oral glucose tolerance test relative to control; format: functional; design: scale not given: the % may be the effect or the level left; details: time 5 hrs
Mus musculus [13] = assay: Hypoglycemic activity in overnight fasted C57BL/6 mouse assessed as reduction in blood glucose AUC (180 to 300 min) at 50 mg/kg, po preadministered with compound for 60 mins followed by first dose of glucose administration for 120 mins and measured after 120 mins of second glucose administration by oral glucose tolerance test relative to control; format: functional; design: scale not given: the % may be the effect or the level left; details: time 5 hrs
Mus musculus [14] = assay: Hypoglycemic activity in TGR5-/- mouse model assessed as reduction in blood glucose level at 50 mg/kg, po preadministered with compound for 60 mins followed by glucose administration and measured after 120 mins by oral glucose tolerance test; format: functional, organism-based; details: time 180.0 min
Mus musculus [15] = assay: Insulin sensitizing activity in over-night fasted male C57BL/6J mouse model assessed as reduction in plasma glucose AUC level at 50 mg/kg, po preadministered with compound for 60 mins followed by insulin administration and measured after 120 mins by insulin tolerance test; format: functional, organism-based; details: time 180.0 min
[16] = target: T3, G-protein coupled bile acid receptor 1 (Homo sapiens) (UniProt Q8TDU6); assay: Agonist activity at TGR5 in human NCI-H716 cells assessed as increase in GLP-1 secretion at 10 uM preincubated with vildagliptin followed by compound addition and measured after 2 hrs by GLP-1(7 to 36) ELISA; format: functional, cell-based; details: filed as agonist
T3 sequence (whole entry): T1 sequence (Q8TDU6 whole entry)

Mus musculus [17] = assay: In vivo agonist activity at TGR5 in wildtype C57BL/6J mouse assessed as increase in GLP-1 secretion in blood at 50 mg/kg, po preadministered with vildagliptin for 1 hrs followed by compound administration and measured after 4 hrs; format: functional, organism-based
Mus musculus [18] = assay: Induction of GLP-1 secretion in TGR5-/- mouse model at 50 mg/kg, po preadministered with vildagliptin for 1 hrs followed by compound administration and measured after 4 hrs; format: functional, organism-based
Mus musculus [19] = assay: Hypoglycemic activity in diet-induced obese mouse model assessed as reduction in blood glucose level at 50 mg/kg, po administered every day and measured after 4 to 8 days; format: functional, organism-based; details: time 4-8 day
Mus musculus [20] = assay: Hypoglycemic activity in diet-induced obese mouse model assessed as reduction in blood glucose AUC (0 to 12 days) level at 50 mg/kg, po administered every day and measured after 12 days relative to control; format: functional; design: scale not given: the % may be the effect or the level left; details: time 12 day
Mus musculus [21] = assay: Hypoglycemic activity in non-fasted diabetic db/db mouse model assessed as decrease in plasma HbA1c level at 50 mg/kg, IG administered once daily for 28 days by glycosylated hemoglobin (GHb) assay; format: functional, organism-based; details: time 28.0 day
[22] = Toxicity in overnight fasted male C57BL/6J mouse assessed as increase in gallbladder volume at 50 mg/kg, iv measured after 2 hrs; format: organism-based; details: in vivo
[23] = Toxicity in overnight fasted male C57BL/6J mouse assessed as increase in bile weight at 50 mg/kg, iv measured after 2 hrs; format: organism-based; details: in vivo
[24] = Acute toxicity in overnight fasted male C57BL/6J mouse model assessed as behavioral abnormalities at 50 to 200 mg/kg, IG administered for 3 days; format: organism-based; details: in vivo, po, 72 h, dose 50-200 mg/kg, time 3 day
[25] = Acute toxicity in overnight fasted male C57BL/6J mouse model assessed as effect on LDH level in blood at 50 mg/kg, IG administered for 3 days; format: organism-based; details: in vivo, po, 72 h, time 3 day
[26] = Acute toxicity in overnight fasted male C57BL/6J mouse model assessed as effect on ALT level in blood at 50 mg/kg, IG administered for 3 days; format: organism-based; details: in vivo, po, 72 h, time 3 day
[27] = Acute toxicity in overnight fasted male C57BL/6J mouse model assessed as effect on AST level in blood at 50 mg/kg, IG administered for 3 days; format: organism-based; details: in vivo, po, 72 h, time 3 day
[28] = Acute toxicity in overnight fasted male C57BL/6J mouse model assessed as effect on ALP level in blood at 50 mg/kg, IG administered for 3 days; format: organism-based; details: in vivo, po, 72 h, time 3 day
[29] = Acute toxicity in overnight fasted male C57BL/6J mouse model assessed as effect on total protein level in blood at 50 mg/kg, IG administered for 3 days; format: organism-based; details: in vivo, po, 72 h, time 3 day
[30] = Acute toxicity in overnight fasted male C57BL/6J mouse model assessed as effect on uric acid level in blood at 50 mg/kg, IG administered for 3 days; format: organism-based; details: in vivo, po, 72 h, time 3 day
[31] = Acute toxicity in overnight fasted male C57BL/6J mouse model assessed as effect on urea level in blood at 50 mg/kg, IG administered for 3 days; format: organism-based; details: in vivo, po, 72 h, time 3 day
[32] = Acute toxicity in overnight fasted male C57BL/6J mouse model assessed as effect on […] level in blood at 50 mg/kg, IG administered for 3 days; format: organism-based; details: in vivo, po, 72 h, time 3 day
[33] = Acute toxicity in overnight fasted male C57BL/6J mouse model assessed as increase in ALT level in blood at 200 mg/kg, IG administered for 3 days; format: organism-based; details: in vivo, po, 72 h, time 3 day
[34] = Acute toxicity in overnight fasted male C57BL/6J mouse model assessed as increase in AST level in blood at 200 mg/kg, IG administered for 3 days; format: organism-based; details: in vivo, po, 72 h, time 3 day
[35] = Acute toxicity in overnight fasted male C57BL/6J mouse model assessed as increase in serum uric acid level at 200 mg/kg, IG administered for 3 days; format: organism-based; details: in vivo, po, 72 h, time 3 day
[36] = Acute toxicity in overnight fasted male C57BL/6J mouse model assessed as histopathological change in liver at 50 to 200 mg/kg, IG administered for 3 days by H and E staining based analysis; format: organism-based; details: in vivo, po, 72 h, dose 50-200 mg/kg, time 3 day
[37] = Apparent permeability across apical to basolateral side in human Caco-2 cells at 2 uM incubated for 2 hrs by LC-MS/MS analysis; format: ADME, cell-based
[38] = Apparent permeability across basolateral to apical side in human Caco-2 cells at 2 uM incubated for 2 hrs by LC-MS/MS analysis; format: ADME, cell-based
[39] = Apparent permeability across basolateral to apical side in human Caco-2 cells assessed as drug recovery at 2 uM incubated for 2 hrs by LC-MS/MS analysis; format: ADME, cell-based; details: read-out: Drug recovery
Homo sapiens = organism: Homo sapiens; assay: Binding affinity to mucin (unknown origin) assessed as disappearance of peak at 9.793 retention time incubated for 2 hrs by HPLC analysis
Rattus norvegicus = organism: Rattus norvegicus; assay: Muco-adhesive activity in rat intestine assessed as disappearance of peak at 9.793 retention time incubated for 2 hrs by HPLC analysis; format: functional

## O=C(CCCCCN1C(=O)C=CC1=O)NCCCCCCCCNC(=O)CCc1cc(Cl)c(Oc2ccncc2C(=O)N2CCN(C3CC3)c3ccccc32)cc1Cl
[1]
  EC50: 355 nM
[2]
  EC50: 400 nM
Mus musculus [3]
  Activity: inactive

## O=C(c1cnccc1Oc1cc(Cl)ccc1Cl)N1CCN(C2CC2)c2ccccc21
[4]
  Activity: Toxic
[5]
  Activity: Toxic

## O=C(CCCCCN1C(=O)C=CC1=O)NCCCCNC(=O)CCc1cc(Cl)c(Oc2ccncc2C(=O)N2CCN(C3CC3)c3ccccc32)cc1Cl
[1]
  EC50: 200 nM
[2]
  EC50: 835 nM
Mus musculus [3]
  Activity: inactive

## C[C@H]1O[C@@H](O[C@H]2[C@@H](O)C[C@H](O[C@H]3[C@@H](O)C[C@H](O[C@H]4CC[C@@]5(C)[C@H](CC[C@@H]6[C@@H]5C[C@@H](O)[C@]5(C)[C@@H](C7=CC(=O)OC7)CC[C@]65O)C4)O[C@@H]3C)O[C@@H]2C)C[C@H](O)[C@@H]1O [DIGOXIN]
[6]
  efflux ratio at 2 h, 10 µM: 535
[7]
  Papp A→B at 2 h, 10 µM: 0.024 ×10⁻⁶ cm/s
[8]
  Papp B→A at 2 h, 10 µM: 13.1 ×10⁻⁶ cm/s
[9]
  recovery at 2 h, 10 µM: 102%
[10]
  recovery at 2 h, 10 µM: 103%

## CC(C)(C)NCC(O)COc1cccc2c1CC(O)C(O)C2 (configuration not stated) [NADOLOL]
[11]
  recovery at 2 h, 2 µM: 102%

## O=C(CCCCCN1C(=O)C=CC1=O)NCCCCCCNC(=O)CCc1cc(Cl)c(Oc2ccncc2C(=O)N2CCN(C3CC3)c3ccccc32)cc1Cl
[1]
  EC50: 166 nM
[2]
  EC50: 138 nM
Mus musculus [3]
  Activity: Active
Mus musculus [12]
  Activity: 19.5%
Mus musculus [13]
  Activity: 15.9%
Mus musculus [14]
  Activity: inactive
Mus musculus [15]
  Activity: Active
[16]
  Activity: Active
Mus musculus [17]
  Activity: Active
Mus musculus [18]
  Activity: inactive
Mus musculus [19]
  Activity: Active
Mus musculus [20]
  Activity: 10.4%
Mus musculus [21]
  Activity: Active
[4]
  Activity: Non-toxic
[5]
  Activity: Non-toxic
[22]
  Activity: Toxic
[23]
  Activity: Toxic
[24]
  Activity: Non-toxic
[25]
  Activity: Non-toxic
[26]
  Activity: Non-toxic
[27]
  Activity: Non-toxic
[28]
  Activity: Non-toxic
[29]
  Activity: Non-toxic
[30]
  Activity: Non-toxic
[31]
  Activity: Non-toxic
[32]
  Activity: Non-toxic
[33]
  Activity: Toxic
[34]
  Activity: Toxic
[35]
  Activity: Toxic
[36]
  Activity: Non-toxic
[37]
  Papp A→B at 2 h, 2 µM: < 0.48 ×10⁻⁶ cm/s
[38]
  Papp B→A at 2 h, 2 µM: < 0.432 ×10⁻⁶ cm/s
[11]
  recovery at 2 h, 2 µM: < 1.1%
[39]
  recovery at 2 h, 2 µM: < 22.8%
Homo sapiens
  Activity: Active
Rattus norvegicus
  Activity: Active

## COCCc1ccc(OCC(O)CNC(C)C)cc1 (configuration not stated) [METOPROLOL]
[37]
  Papp A→B at 2 h, 2 µM: 18.8 ×10⁻⁶ cm/s
[11]
  recovery at 2 h, 2 µM: 104%
